Structures can show the parent of a compound that is named as a salt. Where two headings read alike, the source gives them in different places.

One series deals with patients. The settings on record: cited from earlier work.
Series [1] deals with open-chest, anaesthetized cats. Kind of series: MCF-increasing effect in open-chest, anaesthetized cats (strain gauge arch on left ventricle). Format: in vivo, cat. The settings on record: for change in vivo at 5 mg/kg: Felis catus, iv, 5 mg/kg i.v., open-chest anaesthetized cats, read-out: Increase in MCF as % of the initial value. The protocol:
(A) Investigation on anaesthetized cats
The animals were intravenously (i.v.) anaesthetized by 30 mg/kg of pentobarbital-sodium. After arranging the artificial respiration, the chest and pericardium were opened. A strain gauge arch was sutured onto the epicardial surface of the left ventricle [J. Pharm. Exp. Ther. 90, 26 (1947)]. The blood pressure was measured by a catheter inserted to the femoral artery and joined to a P 23 Db pressure transducer and electromanometer. The test compounds were administered either i.v. through a femoral vein cannule, or intraduodenally (i.d.) through the duodenum cannule. At the beginning of the experiment, 0.2 μg/kg of isoproterenol (IS) was i.v. given as an internal standard for checking the myocardial reactivity. Namely, the value of the peak MCF response can also be altered according to the individual animals in the case of each positive inotropic agent. Thus, IS was not used as a real reference drug.
The MCF responses were expressed in the percentage changes of the initial value: the effect on MCF of 5 mg/kg i.v. of the test compound was compared to that of 0.2 μg/kg i.v. of IS.

Series [2] deals with anaesthetized open-chest dogs. As to the kind of experiment: Investigation on anaesthetized open-chest dogs (MCF, coronary flow, blood pressure, heart rate). Format: in vivo, dog. The method, then: (B) Investigation on anaesthetized dogs
The animals were i.v. anaesthetized by 35 mg/kg of pentobarbital-sodium. After opening the chest and pericardium, the lower ascending part of the left circumflex coronary artery was prepared and fitted with an electromagnetic flow probe for measuring the blood flow in the coronary artery. A strain gauge arch was placed onto the area supplied by this coronary artery for measuring the MCF. For determining the systemic blood pressure a femoral arterial cannule, for i.v. drug administration a femoral venous cannule was used. The dp/dt value was calculated from the pressure measured by a Millar type pressure transducer introduced to the left ventricle. All parameters were registered on a Beckman R 12 8-channel dynograph.

Series [3] has as its system NADH-dichlorophenol-reductase. Kind of series: NADH-dichlorophenol-reductase (NADH oxydase) activity in sarcolemma preparations. As to conditions: 10^-7 M. The class given is biochemical. The protocol: (§1) Sarcolemma preparations were made according to D. M. Bers [Biochem. Biophys. Acta 555, 131 (1979)]. NADH-dichlorophenol-reductase was determined by using a Centrifi-CHEM® enzyme-analyzer. The activity of Na-K-ATP-ase was measured in 50 mM Tris-HCl (at pH 7.5). […] The activity of these enzymes was not altered by even a 10^-4 M concentration of compound 22.

For another series, the target named is T1, Na-K-ATP-ase (Homo sapiens, UniProt P05023).
T1 construct: Sarcolemma preparations were made according to D. M. Bers; from tissue; host or cells: sarcolemma preparation (heart, from the cited Bers 1979 method and the context)
As to the kind of experiment: Na-K-ATP-ase activity in sarcolemma preparations. Format: biochemical. The settings on record: 10^-7 M, 50 mM Tris-HCl pH 7.5. The method, then:
as §1

Series [4] relates to ^45 Ca^2+ uptake into the sarcoplasma reticulum. As to the kind of experiment: 45Ca2+ uptake into the sarcoplasma reticulum in the presence of ATP. The class given is biochemical. The settings on record: 10^-2 M. An excerpt: EFFECT OF COMPOUND 22 ON THE ^45 Ca^2+ UPTAKE INTO THE SARCOPLASMA RETICULUM IN THE PRESENCE OF ATP
The method of S. Harigaya [Circ. Res. 25, 761 (1969)] was used.

Where [5] appears, read: patients suffering from chronic heart failure.

For “1-(4-hydroxyphenyl)-3-tertiary-butylamino-2-propanol [Prenalterol]”, the cardiac performance result in the series with patients (chronic oral treatment) is reported as “not improved”. Also, the “effect in acute cardiac insufficiency” value in the series on patients (given intravenously, clinics) is given as “very effective”.

In the case of `Cc1nc(NCC2CN(Cc3ccccc3)CCO2)c2c(n1)NC(=O)CO2` (stereo not shown) [Example 27, 4-[(4-Benzyl-2-morpholinyl)-methyl]-amino-2-methyl-6,7-dihydro-8H-pyrimido[5,4-b][1,4]oxazin-7-one dihydrochloride dihydrate], the change in vivo at 5 mg/kg in series [1] turned out to be 130%. Further, in series [2] (1 mg/kg i.v., dogs), the MCF increase came to 40%, the coronary flow increase was 20%, the “decrease in diastolic pressure” value is on record as 20% and the “decrease in the systemic systolic arterial blood pressure” value was 10%. Besides, in series [2] (1 mg/kg i.v., dogs), the “duration of the coronary response” value was 20 min, the “half-life of the MCF effect” value stood at 10 min and the “heart rate increase (tachycardia)” value was 10%. In addition, in series [2] (5 mg/kg i.d., dogs), the MCF increase amounted to 30% and the “duration of the MCF increase” value is 30 min.

For the compound `CC(C)NCC(O)c1ccc(O)c(O)c1` (stereo not shown) [IS, isoproterenol, reference compound], in series [1] (0.2 μg/kg i.v., cats), the blood circulation parameters entry was “did not influence”. Further, the MCF response entry in series [1] (0.2 μg/kg i.v., internal standard, cats) was “short-lasting and completely reversible”.

In the case of `Nc1cc(-c2ccncc2)c[nH]c1=O` [amrinone, 5-amino-(3,4'-bipyridin)-6(1H)-one], in the series on patients (setting [5]), the cardiac output result is “significantly increased” and the “resistance of the peripheral vessels” value was “diminished”. The side-effects entry in the series with patients (therapeutic use) is given as “severe side-effects appearing in the blood picture”. Besides, the “positive inotropic action compared with compound 22” value in series [2] (2 mg/kg i.v. amrinone versus 0.4 mg/kg i.v. compound 22, dogs) is “not more effective than that of 0.4 mg/kg of compound 22”. For the same compound, the “positive inotropic action after an acute myocardial ischaemia” value in series [2] (anaesthetized open-chest dogs) is on record as “significantly decreased”.

`CCOC(=O)CN1C(=O)COc2c(NCCO)nc(C)nc21` [Example 37]: in series [1], the change in vivo at 5 mg/kg came to 55.5%. Moreover, the “positive inotropic action after i.d. administration” value in series [1] (i.d., dose of both 20 mg/kg and 5 mg/kg) is on record as “strong positive inotropic action”. In series [2] (0.5 mg/kg i.v., dogs), the MCF increase came to 56%, the coronary flow increase came to 34%, the “decrease in the systemic arterial blood pressure” value was in the range of 10 to 15% and the tachycardia was in the range of 6 to 7%. Also, in series [2] (1 mg/kg i.v., dogs), the MCF increase is on record as 46%, the coronary flow increase is 20%, the “duration of the coronary response” value was 10 min and the “heart rate increase (tachycardia)” value stood at 13%. For the same compound, in series [2] (1.0 mg/kg i.v., dogs), the “decrease in the systemic arterial blood pressure” value is reported as 20%, the “duration of the MCF increase” value worked out at 10 min and the “duration of the heart rate increase” value was determined as 5 min. Further, in series [2] (5 mg/kg i.d., dogs), the MCF increase entry is “about 30%” and the “duration of the MCF increase” value came out at 60 min.

Turning to `Cc1nc(NCCCN2CCOCC2)c2c(n1)NC(=O)CO2` [Example 60, 2-Methyl-4-[3-(4-morpholinyl)-1-propyl]-amino-6,7-dihydro-8H-pyrimido[5,4-b][1,4]oxazin-7-one], in series [1], the change in vivo at 5 mg/kg amounted to 51%.

Turning to `C[C@@H]1O[C@@H](O[C@H]2C[C@@H](O)[C@]3(CO)[C@H]4[C@H](O)C[C@]5(C)[C@@H](C6=CC(=O)OC6)CC[C@]5(O)[C@@H]4CC[C@]3(O)C2)[C@H](O)[C@H](O)[C@H]1O` [Ouabain], the indophenol-reductase inhibition result in series [3] is recorded as “slightly”. In addition, the Na-K-ATP-ase activity entry at Na-K-ATP-ase was “strongly inhibited”.

As for `Cc1nc(NCCO)c2c(n1)N(CC(=O)N1CCOCC1)C(=O)CO2` [Example 66, 4-(2-Hydroxyethyl)-amino-2-methyl-8-(4-morpholinylcarbonyl)-methyl-6,7-dihydro-8H-pyrimido[5,4-b][1,4]oxazin-7-one], the change in vivo at 5 mg/kg in series [1] came to 58.3%.

As to `CCOC(=O)CN1C(=O)COc2c(N)nc(C)nc21` [Example 73], the change in vivo at 5 mg/kg in series [1] amounted to 50%.

Consider `CC(C)(C)NCC(O)c1ccc(O)c(CO)n1` (stereo not shown) [Pirbuterol, 1-(5-hydroxy-6-hydroxymethyl-2-pyridyl)-2-tertiary-butylaminoethanol], for which, in the series on patients (longer period), the “observation after a longer period of oral treatment” value is given as “addiction was observed”. For the same compound, the “effect during oral treatment” value in the series with patients (oral treatment for some weeks) is “favorable effect”.

As to `CC(=O)CN1C(=O)COc2c(NCCO)nc(C)nc21` [Example 29, 4-(2-Hydroxyethyl)-amino-2-methyl-8-(2-oxopropyl)-6,7-dihydro-8H-pyrimido[5,4-b][1,4]oxazine-7-one], the change in vivo at 5 mg/kg in series [1] was found to be 40%.

Turning to `Cc1nc2c(c(N(CCO)Cc3ccccc3)n1)OCC(=O)N2` [Example 11], the change in vivo at 5 mg/kg in series [1] came out at 83%.

As for `CCCCOC(=O)CN1C(=O)COc2c(NCCO)nc(C)nc21` [Example 67, 8-(n-Butoxycarbonyl)methyl-4-(2-hydrocyethyl)amino-2-methyl-6,7-dihydro-8H-pyrimido[5,4-b][1,4]oxazin-7-one hydrochloride], in series [1], the change in vivo at 5 mg/kg was 37%.

On to `Cn1c(=O)c2c(ncn2C)n(C)c1=O` [caffeine], for which the “inhibition of Ca-uptake” value in series [4] is listed as about 25%.

Take `Cc1nc(Cl)c2c(n1)N(CC(O)CO)C(=O)CO2` (stereo not shown) [Example 56]: the change in vivo at 5 mg/kg in series [1] is 100%.

As for `Cc1nc(NCCO)c2c(n1)N(Cc1ccccc1)C(=O)CO2` [Example 69, 8-Benzyl-2-methyl-4-(2-hydroxyethyl)-amino-2-methyl-6,7-dihydro-8H-pyrimidino[5,4-b][1,4]oxazin-7-one], the change in vivo at 5 mg/kg in series [1] was 66%.

As to `Cc1nc(N2CCOCC2)c2c(n1)N(CC(O)CO)C(=O)CO2` (stereo not shown) [Example 57, 8-(2,3-Dihydroxypropyl)-2-methyl-4-(4-morpholinyl)-6,7-dihydro-8H-pyrimido[5,4-b][1,4]oxazin-7-one], the change in vivo at 5 mg/kg in series [1] is 45%.

Take `COc1cc([S+](C)[O-])ccc1-c1nc2ncccc2[nH]1` (stereo not shown) [Sulmazole, 2-(2-methoxy-4-methylsulfinylphenyl)-1H-imidazo[4,5-b]pyridine]: the side-effects entry in the series with patients (clinical tests) was “relatively frequent side-effects”.
